Columns and labels:
[1] = target: T1, wild-type (WT) KRAS (aa1-185) (Homo sapiens, UniProt P01116); assay: KRAS Surface Plasma Resonance (SPR) binding assay, WT KRAS; details: SPR at 10 °C, geometric mean when tested more than once
T1 construct: wild-type (WT) KRAS (aa1-185)
Excerpt: No additional regeneration was used.
Compound dissociation was monitored for at least 3600 seconds. […] No additional regeneration was used.

[2] = target: G12D KRAS (aa1-185) (Homo sapiens, UniProt P01116, G12D); assay: biochemical;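 further: surface plasmon resonance at 10 °C, KRAS captured on a streptavidin chip in GDP-containing buffer, compound dilution series injected, blank streptavidin surface as reference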
Method: (§1) SPR assay was used to measure the kinetic binding constant (KD) of Examples of the present invention.
(§2) The binding affinity and kinetics of Examples of the present invention were measured by Surface Plasmon Resonance (SPR) using Biacore 8K or 8K+ (Cytiva, Marlborough, MA) instruments. Recombinant, C-terminal site-specific biotinylated, wild-type (WT) KRAS (aa1-185), G12D KRAS (aa1-185), G12C KRAS (aa2-184), G12V KRAS (aa2-184), WT HRAS (aa2-184) and WT NRAS (aa2-185) proteins purified in presence of 1 μM GDP were used in these experiments. Binding measurements were performed parallelly in sets of either WT/G12D/G12C/G12V KRAS or WT K/H/N RAS proteins.
(§3) Biacore instrument was desorbed and docked with a Series S Sensor Chip SA. The proteins were diluted to 50 μg/mL with the assay buffer (50 mM HEPES, 150 mM NaCl, 10 μM GDP, 5 mM MgCl2, 0.5 mM TCEP, 5% glycerol, 0.02% Tween-20, 2% DMSO, pH 7.2) and immobilized at a flow rate of 3 μL/min at 10° C. with a contact time of 15 min. to capture ~3000-4000 RUs of proteins on the surface. The functionalized surface was then equilibrated with assay buffer for approximately 1 hour. Un-functionalized SA surfaces with no immobilized protein served as reference for binding kinetic analysis. Compound binding kinetics were measured in either multi-cycle or single-cycle kinetic format.
(§4) A 2-fold, 10-point serial dilution of test compounds was set-up in a 96-well microplate (Greiner; Cat #650101) with a top concentration of either 10 μM or 100 μM. Binding kinetics was measured at 10° C. by injecting serial dilution of compounds onto both reference and RAS immobilized channels at a flow rate of 100 μL/min and association time of 90 seconds. Compound dissociation was monitored for at least 400 seconds during each cycle. No additional regeneration was used. DMSO calibration curve was obtained before and after compound analysis by injecting 0-4% of DMSO in assay buffer. A suitable compound with known affinity and kinetics was tested once in every experiment as a positive control to assess activity of the captured protein on the surface.
(§5) A 3-fold, 6-point serial dilution of compounds was set-up in a deep 96-well microplate (Greiner Bio; Cat #780201) with the highest concentration of 1 μM (concentration range: 0.004-1 μM). Binding kinetics was measured at 10° C. by injecting serial dilutions of compounds in increasing order onto reference as well as RAS immobilized channels at a flow rate of 100 μL/min and association time of 120 seconds. Compound dissociation was monitored for at least 3600 seconds. Two buffer blanks were also run in a single-cycle kinetics format before the compound run for double referencing. No additional regeneration was used. DMSO calibration curve was obtained before and after compound analysis by injecting 0-4% of DMSO in the assay buffer. A suitable compound with known affinity and kinetics was tested once in every experiment as a positive control to assess activity of the captured protein on the surface.
(§6) Both MCK and SCK data were processed and analyzed using Biacore Insight evaluation software (Cytiva, Marlborough, MA)). […] The adequateness of the fit was judged by c^2 values and the randomness of residue distribution.
(§7) A geometric mean of binding constant KD was provided when an Example was tested more than once (n is testing replicate number).

[3] = target: G12C KRAS (aa2-184) (Homo sapiens, UniProt P01116, G12C); assay: biochemical
Method: as §1, §2, §3, §4, §5, §6, §7

[4] = target: G12V KRAS (aa2-184) (Homo sapiens, UniProt P01116, G12V); assay: biochemical
Chain of G12V KRAS (aa2-184) (P01116 2-184 isoform P01116-2 G12V): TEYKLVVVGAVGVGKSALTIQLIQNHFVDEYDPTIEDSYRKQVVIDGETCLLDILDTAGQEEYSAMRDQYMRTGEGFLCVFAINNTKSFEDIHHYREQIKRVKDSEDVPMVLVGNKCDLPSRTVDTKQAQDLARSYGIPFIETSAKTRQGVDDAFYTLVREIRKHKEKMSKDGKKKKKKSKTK
Method: as §1, §2, §3, §4, §5, §6, §7

Chain of G12C KRAS (aa2-184) (P01116 2-184 isoform P01116-2 G12C): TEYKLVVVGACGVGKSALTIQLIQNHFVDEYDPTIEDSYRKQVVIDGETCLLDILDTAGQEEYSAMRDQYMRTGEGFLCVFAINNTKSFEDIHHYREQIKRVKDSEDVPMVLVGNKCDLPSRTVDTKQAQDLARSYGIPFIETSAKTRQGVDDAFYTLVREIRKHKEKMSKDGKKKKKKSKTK
Chain of G12D KRAS (aa1-185) (P01116 1-185 isoform P01116-2 G12D): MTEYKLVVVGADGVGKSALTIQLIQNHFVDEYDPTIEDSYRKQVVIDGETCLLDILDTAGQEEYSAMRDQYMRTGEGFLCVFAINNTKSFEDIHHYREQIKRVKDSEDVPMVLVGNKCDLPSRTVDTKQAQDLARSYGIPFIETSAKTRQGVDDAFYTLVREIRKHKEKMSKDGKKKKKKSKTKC
T1 sequence (P01116 1-185 isoform P01116-2): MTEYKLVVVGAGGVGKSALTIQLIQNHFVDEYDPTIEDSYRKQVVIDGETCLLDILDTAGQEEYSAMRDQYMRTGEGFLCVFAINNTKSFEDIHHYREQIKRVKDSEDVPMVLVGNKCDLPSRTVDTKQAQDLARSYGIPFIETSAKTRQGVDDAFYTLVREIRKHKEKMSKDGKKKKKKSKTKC

Row | Structure (SMILES) | Kd [1] | Kd [2] | Kd [3] | Kd [4]
1 | C#Cc1cccc2cc(O)cc(-c3ncc4c(N5C[C@H](CC#N)[C@@H](F)C5)nc(OC[C@@]56CCCN5C[C@H](F)C6)nc4c3F)c12 (mixture of isomers) [Example 7, {(3SR,4RS)-1-[7-(8-ethynyl-3-hydroxynaphthalen-1-yl)-8-fluoro-2-{[(2R,7aS)-2-fluorotetrahydro-1H-pyrrolizin-7a(5H)-yl]methoxy}pyrido[4,3-d]pyrimidin-4-yl]-4-fluoropyrrolidin-3-yl}acetonitrile] | 2.55 nM | 11.4 nM | 8.33 nM | 6.71 nM
2 | C#Cc1cccc2cc(O)cc(-c3ncc4c(N5C[C@H]6CC[C@@H](C5)O6)nc(OC[C@@]56CCCN5C[C@H](F)C6)nc4c3F)c12 [Example 2, 5-ethynyl-4-(8-fluoro-2-{[(2R,7aS)-2-fluorotetrahydro-1H-pyrrolizin-7a(5H)-yl]methoxy}-4-[(1R,5S)-8-oxa-3-azabicyclo[3.2.1]octan-3-yl]pyrido[4,3-d]pyrimidin-7-yl)naphthalen-2-ol] | 0.422 nM | 1.89 nM | 1.64 nM | 0.515 nM
3 | N#C[C@@H]1CCCN1c1nc(OC[C@@]23CCCN2C[C@H](F)C3)nc2c(F)c(-c3cc(O)cc4ccc(F)c(F)c34)ncc12 [Example 11, (2S)-1-[7-(7,8-difluoro-3-hydroxynaphthalen-1-yl)-8-fluoro-2-{[(2R,7aS)-2-fluorotetrahydro-1H-pyrrolizin-7a(5H)-yl]methoxy}pyrido[4,3-d]pyrimidin-4-yl]pyrrolidine-2-carbonitrile] | 19.7 nM | 23.6 nM | 38.9 nM | 98.7 nM
4 | C#Cc1c(F)c(F)cc2cc(O)cc(-c3nc4c5c(nc(OC[C@@]67CCCN6C[C@H](F)C7)nc5c3F)N3CCCC[C@H]3CO4)c12 [Example 32, 5-ethynyl-6,7-difluoro-4-[(8aS)-4-fluoro-2-{[(2R,7aS)-2-fluorotetrahydro-1H-pyrrolizin-7a(5H)-yl]methoxy}-8,8a,9,10,11,12-hexahydro-7-oxa-1,3,6,12a-tetraazabenzo[4,5]cyclohepta[1,2,3-de]naphthalen-5-yl]naphthalen-2-ol] | 0.009 nM | 0.004 nM | 0.004 nM | 0.004 nM
5 | C#Cc1cccc2cc(O)cc(-c3ncc4c(N5CC[C@@](C)(CC#N)C5)nc(OC[C@@]56CCCN5C[C@H](F)C6)nc4c3F)c12 [Example 5, {(3S)-1-[7-(8-ethynyl-3-hydroxynaphthalen-1-yl)-8-fluoro-2-{[(2R,7aS)-2-fluorotetrahydro-1H-pyrrolizin-7a(5H)-yl]methoxy}pyrido[4,3-d]pyrimidin-4-yl]-3-methylpyrrolidin-3-yl}acetonitrile] | 2.89 nM | 10.5 nM | 11.4 nM | 22.1 nM
6 | C#Cc1cccc2cc(O)cc(-c3ncc4c(N5CCC[C@@](C)(CC#N)C5)nc(OC[C@@]56CCCN5C[C@H](F)C6)nc4c3F)c12 [Example 8, {(3S)-1-[7-(8-ethynyl-3-hydroxynaphthalen-1-yl)-8-fluoro-2-{[(2R,7aS)-2-fluorotetrahydro-1H-pyrrolizin-7a(5H)-yl]methoxy}pyrido[4,3-d]pyrimidin-4-yl]-3-methylpiperidin-3-yl}acetonitrile] | 0.398 nM | 1.69 nM | 1.54 nM | 11.5 nM
7 | C#Cc1c(F)ccc2cc(O)cc(-c3ncc4c(N5CCC[C@@H](CC#N)C5)nc(OC[C@@]56CCCN5C[C@H](F)C6)nc4c3F)c12 [Example 15, {(3S)-1-[7-(8-ethynyl-7-fluoro-3-hydroxynaphthalen-1-yl)-8-fluoro-2-{[(2R,7aS)-2-fluorotetrahydro-1H-pyrrolizin-7a(5H)-yl]methoxy}pyrido[4,3-d]pyrimidin-4-yl]piperidin-3-yl}acetonitrile] | 0.118 nM | 0.128 nM | 0.749 nM | 0.274 nM
8 | C#Cc1cccc2cc(O)cc(-c3ncc4c(N5C[C@@H]6C[C@H](C5)[C@H](O)C6)nc(OC[C@@]56CCCN5C[C@H](F)C6)nc4c3F)c12 [Example 9, (1R,5R,6R)-3-[7-(8-ethynyl-3-hydroxynaphthalen-1-yl)-8-fluoro-2-{[(2R,7aS)-2-fluorotetrahydro-1H-pyrrolizin-7a(5H)-yl]methoxy}pyrido[4,3-d]pyrimidin-4-yl]-3-azabicyclo[3.2.1]octan-6-ol] | 0.019 nM | 0.099 nM | 0.447 nM | 0.308 nM
9 | C#Cc1cccc2cc(O)cc(-c3ncc4c(N5CC[C@@H](CC#N)C5)nc(OC[C@@]56CCCN5C[C@H](F)C6)nc4c3F)c12 [Example 6, {(3S)-1-[7-(8-ethynyl-3-hydroxynaphthalen-1-yl)-8-fluoro-2-{[(2R,7aS)-2-fluorotetrahydro-1H-pyrrolizin-7a(5H)-yl]methoxy}pyrido[4,3-d]pyrimidin-4-yl]pyrrolidin-3-yl}acetonitrile] | 1.89 nM | 2.43 nM | 2.67 nM | 1.35 nM
10 | C#Cc1cccc2cc(O)cc(-c3ncc4c(N5CCC[C@@H](CC#N)C5)nc(OC[C@@]56CCCN5C[C@H](F)C6)nc4c3F)c12 [Example 1, {(3S)-1-[7-(8-ethynyl-3-hydroxynaphthalen-1-yl)-8-fluoro-2-{[(2R,7aS)-2-fluorotetrahydro-1H-pyrrolizin-7a(5H)-yl]methoxy}pyrido[4,3-d]pyrimidin-4-yl]piperidin-3-yl}acetonitrile] | 0.273 nM | 0.268 nM | 1.23 nM | 0.454 nM
11 | Oc1cc(-c2ncc3c(N4C[C@@H]5C[C@H](C4)[C@H](O)C5)nc(OC[C@@]45CCCN4C[C@H](F)C5)nc3c2F)c2ccccc2c1 [Example 17, (1R,5R,6R)-3-[8-fluoro-2-{[(2R,7aS)-2-fluorotetrahydro-1H-pyrrolizin-7a(5H)-yl]methoxy}-7-(3-hydroxynaphthalen-1-yl)pyrido[4,3-d]pyrimidin-4-yl]-3-azabicyclo[3.2.1]octan-6-ol] | 0.362 nM | 0.553 nM | 0.963 nM | 0.269 nM
12 | C#Cc1c(F)ccc2cc(O)cc(-c3nc4c5c(nc(OC[C@@]67CCCN6C[C@H](F)C7)nc5c3F)N(C)CCO4)c12 [Example 24, 5-ethynyl-6-fluoro-4-(4-fluoro-2-{[(2R,7aS)-2-fluorotetrahydro-1H-pyrrolizin-7a(5H)-yl]methoxy}-10-methyl-9,10-dihydro-8H-7-oxa-1,3,6,10-tetraazacyclohepta[1,2,3-de]naphthalen-5-yl)naphthalen-2-ol] | 0.145 nM | 0.081 nM | 0.079 nM | 0.052 nM
13 | C#Cc1cccc2cc(O)cc(-c3ncc4c(N5C[C@@H]6C[C@H](O)[C@H](C5)O6)nc(OC[C@@]56CCCN5C[C@H](F)C6)nc4c3F)c12 (single isomer, unassigned) [Example 19, (1S*,5S*,6S*)-3-[7-(8-ethynyl-3-hydroxynaphthalen-1-yl)-8-fluoro-2-{[(2R,7aS)-2-fluorotetrahydro-1H-pyrrolizin-7a(5H)-yl]methoxy}pyrido[4,3-d]pyrimidin-4-yl]-8-oxa-3-azabicyclo[3.2.1]octan-6-ol] | 27.9 nM | 78.3 nM | 84.7 nM | 91.7 nM
14 | C#Cc1c(F)ccc2cccc(-c3nc4c5c(nc(OC[C@@]67CCCN6C[C@H](F)C7)nc5c3F)N3C[C@@H](O)CC[C@H]3CO4)c12 [Example 30, (8aS,11S)-5-(8-ethynyl-7-fluoronaphthalen-1-yl)-4-fluoro-2-{[(2R,7aS)-2-fluorotetrahydro-1H-pyrrolizin-7a(5H)-yl]methoxy}-8,8a,9,10,11,12-hexahydro-7-oxa-1,3,6,12a-tetraazabenzo[4,5]cyclohepta[1,2,3-de]naphthalen-11-ol] | 2.58 nM | 0.25 nM | 1.1 nM | 0.24 nM
15 | C#Cc1cccc2cc(O)cc(-c3ncc4c(N5C[C@H]6C[C@@H](O)[C@@H](C5)O6)nc(OC[C@@]56CCCN5C[C@H](F)C6)nc4c3F)c12 (relative stereo) [Example 18, (1R*,5R*,6R*)-3-[7-(8-ethynyl-3-hydroxynaphthalen-1-yl)-8-fluoro-2-{[(2R,7aS)-2-fluorotetrahydro-1H-pyrrolizin-7a(5H)-yl]methoxy}pyrido[4,3-d]pyrimidin-4-yl]-8-oxa-3-azabicyclo[3.2.1]octan-6-ol] | 0.092 nM | 0.214 nM | 0.759 nM | 0.13 nM
16 | C#Cc1c(F)ccc2cccc(-c3nc4c5c(nc(OC[C@@]67CCCN6C[C@H](F)C7)nc5c3F)N3CCCC[C@H]3CO4)c12 [Example 29, (8aS)-5-(8-ethynyl-7-fluoronaphthalen-1-yl)-4-fluoro-2-{[(2R,7aS)-2-fluorotetrahydro-1H-pyrrolizin-7a(5H)-yl]methoxy}-8,8a,9,10,11,12-hexahydro-7-oxa-1,3,6,12a-tetraazabenzo[4,5]cyclohepta[1,2,3-de]naphthalene] | 5.75 nM | 1.55 nM | 3.65 nM | 1.48 nM
17 | C#Cc1c(F)ccc2cc(O)cc(-c3nc4c5c(nc(OC[C@@]67CCCN6C[C@H](F)C7)nc5c3F)N(CCO)CCO4)c12 [Example 26, 5-ethynyl-6-fluoro-4-[4-fluoro-2-{[(2R,7aS)-2-fluorotetrahydro-1H-pyrrolizin-7a(5H)-yl]methoxy}-10-(2-hydroxyethyl)-9,10-dihydro-8H-7-oxa-1,3,6,10-tetraazacyclohepta[1,2,3-de]naphthalen-5-yl]naphthalen-2-ol] | 0.014 nM | 0.046 nM | 0.031 nM | 0.117 nM
